# Reference: US10054581B1, “Inhibitors of notch signaling pathway and use thereof in treatment of cancers” (Ecole Polytechnique Federale de Lausanne (EPFL), priority 2011, dated 2018)
# Entries after “also recorded” stand apart in the source; their conditions may differ.
# Columns and labels:
# [1] = tested on: MMTV-ErbB2 mouse mammary tumors; assay: MMTV-ErbB2 mammary tumor transplantation in FVB mice; format: in vivo; details: 25 mg/kg on alternate days, established tumors; preliminary results
# Method: FIGS. 9A-9B show 6-(4-Tert-Butylphenoxy)Pyridin-3-Amine (I3) treatment blocks MMTV-ErbB2 mouse mammary tumors. […] Tubulin served as a loading control. […] Tumor formation was monitored on a regular basis. Once the tumor developed to a volume of 100-300 mm^3′ mice were treated with oil (n=2) or 25 mg/kg of 6-(4-Tert-Butylphenoxy)Pyridin-3-Amine (I3) (n=2). Tumor volume was measured every 6-7 days.
# Primary MMTV-ErbB2/Neu mammary tumors were harvested from the mice and a single cell suspension was prepared. 1×10^6 primary tumor cells were suspended in 50 μl of 1×PBS and kept on ice. Three weeks old recipient FVB mice were cleared of their endogenous epithelium and tumor cells were injected into the empty fat pad. Tumor development in the recipient mice was monitored and tumor volumes were measured using digital caliper. Tumor volumes were calculated using following formula: […]length×(width)^2. Once the tumor reached a volume of about 100 mm^3, recipient mice were treated with oil or 25 mg/kg of I3 on alternate days.
# In human breast cancer, high levels of Notch1 and Jagged1 proteins correlated with a poor survival of breast cancer patients. In addition, activation of Notch signalling in human breast cancer also facilitates bone and lung metastasis. […] The tumor volume was measured and recorded on regular intervals.
# [2] = target: T1, NICD, MAML1 and CSL/RBP-jk (Homo sapiens, UniProt P46531+Q06330+Q92585); assay: Microscopy of NICD-GFP, MAML1-FLAG and CSL/RBP-jk localization in HeLa cells; format: cell-based
# T1 construct: expressed in transfected cells; host or cells: HeLa cells (NICD-GFP and MAML1-FLAG transfected; CSL/RBP-jk endogenous)
# Method: To perform immunofluorescence staining, HeLa cells or C2C12 cells were grown on cover slips. Cells were washed with 1× ice-cold PBS, fixed with 4% PFA for 5 minutes at room temperature and permeabilized using 0.3% Triton X-100. Subsequently permeabilized cells were blocked for 20 minutes with 1% BSA for 20 minutes at room temperature. Cells were incubated with appropriate primary antibodies for […] at room temperature. Alexa Fluor-488 conjugated secondary antibodies were used to detect primary antibodies. Cells were counterstained with DAPI and mounted in fluorescent mounting media. Fluorescent images were viewed and captured using Zeiss Axioplan microscope at Bioimaging and optics core facility at EPFL.
# This raises several possibilities about the mechanism of action of 6-(4-Tert-Butylphenoxy)Pyridin-3-Amine (I3). For example, 6-(4-Tert-Butylphenoxy)Pyridin-3-Amine (I3) treatment could impair nuclear localization of the NICD. A second possible mechanism of inhibition could be targeting of one or more individual components of the transcriptional activation complex in the nucleus. […] In parallel, the 6-(4-Tert-Butylphenoxy)Pyridin-3-Amine (I3) mediated pathway inhibition was determined by Notch driven luciferase measurement (data not shown). […]
# T1 sequence (P46531 1754-2555 limits assumed): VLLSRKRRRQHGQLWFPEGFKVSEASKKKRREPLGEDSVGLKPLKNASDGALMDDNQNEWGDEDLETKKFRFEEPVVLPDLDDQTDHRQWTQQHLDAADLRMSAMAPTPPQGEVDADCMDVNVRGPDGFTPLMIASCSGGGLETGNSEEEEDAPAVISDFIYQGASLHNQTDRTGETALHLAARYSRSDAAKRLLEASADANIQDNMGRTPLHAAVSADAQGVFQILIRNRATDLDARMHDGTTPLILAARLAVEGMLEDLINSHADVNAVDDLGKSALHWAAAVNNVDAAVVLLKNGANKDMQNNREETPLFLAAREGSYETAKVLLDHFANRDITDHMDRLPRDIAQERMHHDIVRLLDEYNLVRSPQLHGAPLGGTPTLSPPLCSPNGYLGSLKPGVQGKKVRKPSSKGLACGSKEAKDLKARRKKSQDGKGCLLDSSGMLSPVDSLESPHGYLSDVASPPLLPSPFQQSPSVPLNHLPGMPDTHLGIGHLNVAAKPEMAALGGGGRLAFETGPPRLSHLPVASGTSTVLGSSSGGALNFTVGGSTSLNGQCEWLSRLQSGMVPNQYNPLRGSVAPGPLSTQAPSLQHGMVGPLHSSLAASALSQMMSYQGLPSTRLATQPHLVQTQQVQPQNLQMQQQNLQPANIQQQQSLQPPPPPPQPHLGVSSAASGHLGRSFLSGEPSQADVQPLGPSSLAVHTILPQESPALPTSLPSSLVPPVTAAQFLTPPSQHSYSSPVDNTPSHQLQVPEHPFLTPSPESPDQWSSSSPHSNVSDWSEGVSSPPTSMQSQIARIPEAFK
# T1 sequence (Q92585 whole entry): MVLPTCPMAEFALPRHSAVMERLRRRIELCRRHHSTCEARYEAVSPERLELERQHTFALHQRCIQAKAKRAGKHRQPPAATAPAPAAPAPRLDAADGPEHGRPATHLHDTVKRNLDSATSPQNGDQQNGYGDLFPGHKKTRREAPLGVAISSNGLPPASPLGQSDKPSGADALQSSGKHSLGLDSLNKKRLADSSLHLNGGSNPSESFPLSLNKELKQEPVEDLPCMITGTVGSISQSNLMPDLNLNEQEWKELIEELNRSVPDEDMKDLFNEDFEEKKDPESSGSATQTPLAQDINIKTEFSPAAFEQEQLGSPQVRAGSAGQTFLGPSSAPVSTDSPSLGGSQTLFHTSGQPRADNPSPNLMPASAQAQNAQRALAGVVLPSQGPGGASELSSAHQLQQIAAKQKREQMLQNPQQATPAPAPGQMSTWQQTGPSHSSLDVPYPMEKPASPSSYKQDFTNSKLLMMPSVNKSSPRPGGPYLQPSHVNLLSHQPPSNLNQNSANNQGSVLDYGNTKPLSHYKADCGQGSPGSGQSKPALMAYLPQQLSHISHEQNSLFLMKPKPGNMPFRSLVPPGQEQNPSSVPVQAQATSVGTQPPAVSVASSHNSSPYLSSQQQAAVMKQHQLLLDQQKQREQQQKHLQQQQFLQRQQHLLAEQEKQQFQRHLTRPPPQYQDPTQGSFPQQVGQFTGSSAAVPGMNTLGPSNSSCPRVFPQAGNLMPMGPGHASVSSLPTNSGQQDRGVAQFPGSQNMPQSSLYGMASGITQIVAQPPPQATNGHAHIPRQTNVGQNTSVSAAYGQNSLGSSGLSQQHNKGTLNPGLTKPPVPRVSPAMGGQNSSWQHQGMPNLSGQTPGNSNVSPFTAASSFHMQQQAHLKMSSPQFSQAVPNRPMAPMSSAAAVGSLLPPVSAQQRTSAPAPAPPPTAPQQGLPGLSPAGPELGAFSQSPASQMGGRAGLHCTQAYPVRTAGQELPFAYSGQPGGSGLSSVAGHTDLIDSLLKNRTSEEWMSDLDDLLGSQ
# T1 sequence (Q06330 whole entry): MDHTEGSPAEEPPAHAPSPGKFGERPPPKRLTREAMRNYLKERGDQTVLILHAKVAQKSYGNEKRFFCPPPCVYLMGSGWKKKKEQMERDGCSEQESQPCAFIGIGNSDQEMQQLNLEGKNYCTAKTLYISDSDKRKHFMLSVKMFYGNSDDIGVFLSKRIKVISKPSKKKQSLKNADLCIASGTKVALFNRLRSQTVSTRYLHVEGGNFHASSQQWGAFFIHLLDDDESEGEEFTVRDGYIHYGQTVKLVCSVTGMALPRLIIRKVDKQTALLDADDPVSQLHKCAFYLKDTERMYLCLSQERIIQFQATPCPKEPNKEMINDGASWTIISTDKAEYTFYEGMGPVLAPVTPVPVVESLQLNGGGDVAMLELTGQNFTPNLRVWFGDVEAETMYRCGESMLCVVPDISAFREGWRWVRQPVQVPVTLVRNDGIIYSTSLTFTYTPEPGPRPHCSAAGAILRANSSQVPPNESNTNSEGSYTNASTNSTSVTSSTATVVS
smiles,measurement,setting,value
"CC(C)(C)c1ccc(Oc2ccc(N)cn2)cc1 [I3, 6-(4-Tert-Butylphenoxy)Pyridin-3-Amine]",tumor volume / tumor progression,[1],caused significant tumor growth retardation; also recorded: exhibited a slow tumor progression compared to oil treated mice; also recorded: led to a block in tumor progression in the mice
same,"co-localization of NICD, MAML1 and CSL/RBP-jk in sub-nuclear compartments","[2]; 800 ng NICD-GFP + 1 μg MAML1-FLAG, I3 10 μM, 24 hours","did not perturb the translocation and co-localization of NICD-GFP and MAML1 into sub-nuclear compartment; also recorded: did not perturb their distribution in the nucleus; also recorded: does not impede co-localization of NICD, MAML1 and CSL/RBP-jk in the sub-nuclear compartments"
same,nuclear localization of NICD-GFP,[2]; HeLa cells transfected with NICD-GFP,not perturbed; also recorded: did not alter its nuclear localization
